Source: ChEMBL document CHEMBL1147729, “(+)-(2R,5S)-4-[4-cyano-3-(trifluoromethyl)phenyl]-2,5-dimethyl-N-[6-(trifluoromethyl)pyridin-3-yl]piperazine-1-carboxamide (YM580) as an orally potent and peripherally selective nonsteroidal androgen receptor antagonist” (J Med Chem, 2006)

Assays:
[1] = tested on: Rattus norvegicus; experiment: Effect on ventral prostate weight with reference to control in Wistar rat at 10 mg/kg/day, po; assay type: functional, Prostate gland; details: Rattus norvegicus, Wistar, Prostate gland
[2] = tested on: Rattus norvegicus; experiment: Effect on ventral prostate weight with reference to control in Wistar rat at 30 mg/kg/day, po; assay type: functional; details: Prostate gland
[3] = target: T1, Progesterone receptor (Rattus norvegicus, UniProt Q63449); experiment: Inhibition of rat PR
T1 sequence (Q63449 whole entry): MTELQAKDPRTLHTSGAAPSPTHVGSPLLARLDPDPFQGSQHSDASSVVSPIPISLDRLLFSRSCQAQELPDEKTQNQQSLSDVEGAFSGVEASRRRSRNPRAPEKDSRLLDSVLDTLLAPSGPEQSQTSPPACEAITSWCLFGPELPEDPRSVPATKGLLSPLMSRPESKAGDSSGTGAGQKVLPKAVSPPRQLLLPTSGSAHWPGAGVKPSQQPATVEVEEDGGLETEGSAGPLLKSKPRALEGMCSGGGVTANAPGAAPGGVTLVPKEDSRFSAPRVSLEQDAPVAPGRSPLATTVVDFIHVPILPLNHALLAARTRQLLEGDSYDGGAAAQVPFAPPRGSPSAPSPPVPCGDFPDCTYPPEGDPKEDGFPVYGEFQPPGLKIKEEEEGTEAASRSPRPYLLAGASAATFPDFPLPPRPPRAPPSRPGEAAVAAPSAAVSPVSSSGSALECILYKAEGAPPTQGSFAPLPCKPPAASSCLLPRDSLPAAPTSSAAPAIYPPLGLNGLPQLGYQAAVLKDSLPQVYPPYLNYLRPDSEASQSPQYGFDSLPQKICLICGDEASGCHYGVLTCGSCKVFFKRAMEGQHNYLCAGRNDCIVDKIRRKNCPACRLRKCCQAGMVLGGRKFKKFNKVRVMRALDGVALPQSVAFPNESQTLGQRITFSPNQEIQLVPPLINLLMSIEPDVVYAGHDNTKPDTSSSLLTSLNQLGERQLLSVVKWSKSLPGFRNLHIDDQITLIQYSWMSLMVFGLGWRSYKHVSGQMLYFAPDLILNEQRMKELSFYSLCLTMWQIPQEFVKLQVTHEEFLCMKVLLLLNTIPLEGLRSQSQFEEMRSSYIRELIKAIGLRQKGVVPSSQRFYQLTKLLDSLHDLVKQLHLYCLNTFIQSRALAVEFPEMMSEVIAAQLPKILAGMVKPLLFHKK

[4] = target: T2, Glucocorticoid receptor (Homo sapiens, UniProt P04150); experiment: Inhibition of human GR
T2 sequence (P04150 whole entry): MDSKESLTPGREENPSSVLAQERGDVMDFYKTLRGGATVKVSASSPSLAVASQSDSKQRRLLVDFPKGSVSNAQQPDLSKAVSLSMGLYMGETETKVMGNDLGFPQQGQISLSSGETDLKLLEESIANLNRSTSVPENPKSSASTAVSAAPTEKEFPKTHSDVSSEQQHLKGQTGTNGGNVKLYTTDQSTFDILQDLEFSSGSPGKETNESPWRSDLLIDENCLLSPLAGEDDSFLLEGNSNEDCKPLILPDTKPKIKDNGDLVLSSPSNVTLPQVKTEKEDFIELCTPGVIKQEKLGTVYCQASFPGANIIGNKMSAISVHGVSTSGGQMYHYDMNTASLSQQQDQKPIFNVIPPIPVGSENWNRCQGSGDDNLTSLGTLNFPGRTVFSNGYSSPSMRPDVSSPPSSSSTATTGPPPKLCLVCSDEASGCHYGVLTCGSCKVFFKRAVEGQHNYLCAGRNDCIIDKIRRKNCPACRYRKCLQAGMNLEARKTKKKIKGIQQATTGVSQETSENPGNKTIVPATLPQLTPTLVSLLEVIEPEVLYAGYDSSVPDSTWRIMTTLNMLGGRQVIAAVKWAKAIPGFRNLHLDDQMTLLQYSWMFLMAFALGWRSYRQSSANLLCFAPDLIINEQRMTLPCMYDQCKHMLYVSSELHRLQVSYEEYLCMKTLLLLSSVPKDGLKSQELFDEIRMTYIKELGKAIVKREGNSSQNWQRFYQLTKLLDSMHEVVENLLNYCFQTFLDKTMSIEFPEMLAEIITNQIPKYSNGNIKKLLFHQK

[5] = target: T3, Estrogen receptor (Homo sapiens, UniProt P03372); experiment: Inhibition of human ERalpha
T3 sequence (P03372 whole entry): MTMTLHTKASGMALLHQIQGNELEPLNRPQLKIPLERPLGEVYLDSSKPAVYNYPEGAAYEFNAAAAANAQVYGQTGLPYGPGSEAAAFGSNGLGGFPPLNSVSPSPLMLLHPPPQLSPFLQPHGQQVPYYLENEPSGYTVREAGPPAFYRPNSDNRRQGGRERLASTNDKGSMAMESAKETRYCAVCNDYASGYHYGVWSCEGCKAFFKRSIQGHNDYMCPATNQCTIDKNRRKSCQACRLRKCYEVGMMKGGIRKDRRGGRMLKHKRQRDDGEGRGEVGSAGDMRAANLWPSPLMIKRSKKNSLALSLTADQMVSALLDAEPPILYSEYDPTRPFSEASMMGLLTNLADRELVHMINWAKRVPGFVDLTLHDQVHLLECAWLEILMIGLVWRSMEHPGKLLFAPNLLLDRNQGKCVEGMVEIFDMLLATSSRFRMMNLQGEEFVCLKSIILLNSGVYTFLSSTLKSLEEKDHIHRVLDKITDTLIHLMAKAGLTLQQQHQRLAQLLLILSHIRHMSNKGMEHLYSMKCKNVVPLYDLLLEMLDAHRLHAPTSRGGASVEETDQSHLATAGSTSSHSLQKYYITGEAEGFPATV

[6] = Cmax in rat plasma at 3 mg/kg, po; assay type: ADME, organism-based; parameters: dose 3 mg/kg, route oral
[7] = AUC (0-72)hrs in rat plasma at 3 mg/kg, po; assay type: ADME, organism-based; parameters: time < 72 hr, dose 3 mg/kg, route oral
[8] = Half life in rat plasma at 3 mg/kg, po; assay type: ADME, organism-based; parameters: dose 3 mg/kg, route oral
[9] = Oral clearance in rat at 3 mg/kg, po; assay type: ADME, organism-based; parameters: dose 3 mg/kg, route oral; details: in vivo
[10] = Cmax in rat ventral prostate at 3 mg/kg, po; assay type: ADME, organism-based, Prostate gland; parameters: dose 3 mg/kg, route oral
[11] = AUC (0-72)hrs in rat ventral prostate at 3 mg/kg, po; assay type: ADME, organism-based, Prostate gland; parameters: time < 72 hr, dose 3 mg/kg, route oral
[12] = Half life in rat ventral prostate at 3 mg/kg, po; assay type: ADME, organism-based, Prostate gland; parameters: dose 3 mg/kg, route oral
[13] = Oral clearance in rat ventral prostate at 3 mg/kg, po; assay type: ADME, organism-based, Prostate gland; parameters: dose 3 mg/kg, route oral
[14] = Cmax in rat hypothalamus at 3 mg/kg, po; assay type: ADME, organism-based; parameters: dose 3 mg/kg, route oral
[15] = AUC (0-72)hrs in rat hypothalamus at 3 mg/kg, po; assay type: ADME, organism-based; parameters: time < 72 hr, dose 3 mg/kg, route oral

C[C@@H]1CN(c2ccc(C#N)c(C(F)(F)F)c2)[C@@H](C)CN1C(=O)Nc1ccc(C(F)(F)F)nc1 (racemic)
inhibition in vivo at 10 mg/kg/day [1]: 67%
ED50 [2]: 2.2 mg/kg
Ki [3]: 3.3 µM
Ki [4]: > 100 µM
Ki [5]: > 100 µM
Cmax [6]: 702 ng/mL
AUC at 72 h [7]: 22000 ng·h/mL
half-life [8]: 12.5 h
CL/F [9]: 2.22 mL/min/kg
Cmax [10]: 1560 ng/mL
AUC at 72 h [11]: 43200 ng·h/mL
half-life [12]: 11.2 h
CL/F [13]: 1.14 mL/min/kg
Cmax [14]: 96 ng/mL
AUC at 72 h [15]: 2580 ng·h/mL
